Consider 25 molecules from patent US20240174629A1 (OTCPHARM JSC, priority 2021, published 2024).

≈ marks a conversion by molar mass, not a printed value.

Data set [1] in a line: Cytotoxicity, microtetrazolium test (MTT). Conditions: dog, MDCK cells, CC50 (MDCK), mean ±SD.
Data set [2] in a line: Acute oral toxicity, fixed dose method (OECD 420). Conditions: for GHS hazard class: acute oral toxicity in mice, UN GHS classification; for Died / Survived: female BALB/c mice, intragastric, 2000 mg/kg.

As a reminder, the CC50 is the concentration that lowers cell viability or growth by half. A higher CC50 goes with better tolerance by the cells. The term melting point denotes the temperature, or range, at which the solid turns liquid.

The molecule `COC(=O)c1c(N(Cc2ccccc2F)C(C)=O)sc2c(Cl)c(O)ccc12` [Example 23, Methyl 2-[acetyl(2-fluorobenzyl)amino]-7-chloro-6-hydroxy-1-benzothiophene-3-carboxylate] displayed a CC50 at 48 h in data set [1] greater than 300 µg/mL. In addition, in data set [2], the GHS hazard class is given as 5, the Died was 0 and the Survived was determined as 4.
As to `COC(=O)c1c(N(Cc2ccc(C(C)C)cc2)C(C)=O)sc2c(Cl)c(O)ccc12` [Example 41, Methyl 2-[acetyl(4-isopropylbenzyl)amino]-7-chloro-6-hydroxy-1-benzothiophene-3-carboxylate], the melting point lay within 183 to 186 °C. In data set [1], the cytotoxic concentration (CC50) at 48 h came out at 5 ± 0.5 µg/mL (≈ 11.6 µM).
In turn, `COC(=O)c1c(N(Cc2ccc(C(C)C)cc2)C(C)=O)sc2cc(O)ccc12` [Example 42, Methyl 2-[acetyl(4-isopropylbenzyl)amino]-6-hydroxy-1-benzothiophene-3-carboxylate] yielded a melting point of 141 to 145 °C. This molecule came in with a CC50 at 48 h in data set [1] of 10 µg/mL (≈ 25.2 µM).
On the same counts, the results for `COC(=O)c1c(N(Cc2ccccc2Cl)C(C)=O)sc2c(CN(C)C)c(O)ccc12` [Example 51] are 132 to 136 °C and greater than 300 µg/mL.
`COC(=O)c1c(N(Cc2ccccc2F)C(C)=O)sc2c(CN(C)C)c(O)ccc12` [Example 52]: it took 180 ± 16 µg/mL (≈ 418 µM) to reach half-maximal cytotoxicity in data set [1] (CC50 at 48 h). In data set [2], this molecule showed a GHS hazard class of 5, a Died of 0 and a Survived of 4.
The molecule `COC(=O)c1c(N(Cc2cccc(F)c2)C(C)=O)sc2c(CN(C)C)c(O)ccc12` [Example 53] displayed a melting point of 142 to 144 °C. In data set [1], this molecule displayed a CC50 at 48 h greater than 300 µg/mL.
Take `COC(=O)c1c(N(CCc2ccccc2F)C(C)=O)sc2c(CN(C)C)c(O)ccc12` [Example 56, Methyl 2-{acetyl[2-(2-fluorophenyl)ethyl]amino}-7-[(dimethylamino)methyl]-6-hydroxy-1-benzothiophene-3-carboxylate]: the melting point was 114 to 120 °C. In data set [1], this molecule returned a CC50 at 48 h greater than 300 µg/mL.
Molecule `COC(=O)c1c(N(Cc2ccccc2C)C(C)=O)sc2c(CN(C)C)c(O)ccc12` [Example 58] returned a melting point of 155 to 160 °C. Besides, the half-maximal cytotoxic concentration (CC50) at 48 h in data set [1] is greater than 300 µg/mL.
For the molecule `COC(=O)c1c(N(Cc2ccccc2C(F)(F)F)C(C)=O)sc2c(CN(C)C)c(O)ccc12` [Example 59], the melting point fell in the range of 184 to 188 °C. This molecule registered a CC50 at 48 h in data set [1] greater than 300 µg/mL.
`COC(=O)c1c(N(Cc2ccccc2C#N)C(C)=O)sc2c(CN(C)C)c(O)ccc12` [Example 60] registered a melting point of 178 to 182 °C. In data set [1], this molecule gave a CC50 at 48 h greater than 300 µg/mL.
`CC(=O)N(Cc1ccccc1)c1sc2c(Cl)c(O)ccc2c1C(=O)O` [Example 66, 2-[acetyl(benzyl)amino]-7-chloro-6-hydroxy-1-benzothiophene-3-carboxylic acid]: the melting point fell in the range of 240 to 245 °C. The CC50 at 48 h in data set [1] is greater than 300 µg/mL.
As to `CC(=O)N(Cc1ccccc1)c1sc2cc(O)ccc2c1C(=O)O` [Example 67, 2-[acetyl(benzyl)amino]-6-hydroxy-1-benzothiophene-3-carboxylic acid], the melting point was 130 to 135 °C. This molecule also returned a CC50 at 48 h in data set [1] greater than 300 µg/mL.
On the same counts, the results for `CC(=O)N(Cc1ccccc1Cl)c1sc2c(Cl)c(O)ccc2c1C(=O)O` [Example 68, 2-[acetyl(2-chlorobenzyl)amino]-7-chloro-6-hydroxy-1-benzothiophene-3-carboxylic acid] are 265 to 270 °C and 65 ± 4 µg/mL (≈ 158 µM).
`CC(=O)N(Cc1ccc(F)cc1F)c1sc2c(Cl)c(O)ccc2c1C(=O)O` [Example 71, 2-[acetyl(2,4-difluorobenzyl)amino]-7-chloro-6-hydroxy-1-benzothiophene-3-carboxylic acid]: the melting point is 238 to 242 °C. Moreover, it took 210 ± 16 µg/mL (≈ 510 µM) to reach half-maximal cytotoxicity in data set [1] (CC50 at 48 h).
Turning to `CNC(=O)c1c(N(Cc2ccccc2)C(C)=O)sc2c(Cl)c(O)ccc12` [Example 72, 2-[acetyl(benzyl)amino]-7-chloro-6-hydroxy-N-methyl-1-benzothiophene-3-carboxamide], the midpoint of cytotoxicity in data set [1], the CC50 at 48 h, lay at 160 ± 11 µg/mL (≈ 411 µM). In data set [2], this molecule displayed a GHS hazard class of 5, a Died of 0 and a Survived of 4.
`CNC(=O)c1c(N(Cc2ccccc2Cl)C(C)=O)sc2c(Cl)c(O)ccc12` [Example 74, 2-[acetyl(2-chlorobenzyl)amino]-7-chloro-6-hydroxy-N-methyl-1-benzothiophene-3-carboxamide]: the melting point lay within 200 to 202 °C. The molecule further displayed a CC50 at 48 h in data set [1] of 32 ± 4 µg/mL (≈ 75.6 µM).
`CNC(=O)c1c(N(Cc2ccccc2F)C(C)=O)sc2c(Cl)c(O)ccc12` [Example 75, 2-[acetyl(2-fluorobenzyl)amino]-7-chloro-6-hydroxy-N-methyl-1-benzothiophene-3-carboxamide] registered a melting point of 108 to 112 °C. In addition, in data set [1], the CC50 at 48 h turned out to be 28 ± 4 µg/mL (≈ 68.8 µM).
`CNC(=O)c1c(N(Cc2ccccc2F)C(C)=O)sc2cc(O)ccc12` [Example 76, 2-[acetyl(2-fluorobenzyl)amino]-6-hydroxy-N-methyl-1-benzothiophene-3-carboxamide] came in with a melting point of 105 to 112 °C. For the same molecule, the CC50 at 48 h in data set [1] is greater than 300 µg/mL.
In turn, `CNC(=O)c1c(N(Cc2ccc(F)cc2)C(C)=O)sc2c(Cl)c(O)ccc12` [Example 77] returned a melting point of 192 to 195 °C. The molecule also showed a 50% cytotoxic concentration (CC50) at 48 h in data set [1] of 32.2 ± 2.4 µg/mL (≈ 79.1 µM).
`CNC(=O)c1c(N(Cc2ccc(F)cc2F)C(C)=O)sc2c(Cl)c(O)ccc12` [Example 78, 2-[acetyl(2,4-difluorobenzyl)amino]-7-chloro-6-hydroxy-N-methyl-1-benzothiophene-3-carboxamide] showed a melting point of 125 to 130 °C. This molecule also had a CC50 at 48 h in data set [1] of 68 ± 5 µg/mL (≈ 160 µM).
As for `CCNC(=O)c1c(N(Cc2ccccc2)C(C)=O)sc2cc(O)ccc12` [Example 79, 2-[acetyl(benzyl)amino]-6-hydroxy-N-ethyl-1-benzothiophene-3-carboxamide], the melting point is 138 to 142 °C. Besides, the CC50 at 48 h in data set [1] worked out at 250 ± 21 µg/mL (≈ 679 µM).
With `CCCNC(=O)c1c(N(Cc2ccccc2)C(C)=O)sc2cc(O)ccc12` [Example 80, 2-[acetyl(benzyl)amino]-6-hydroxy-N-propyl-1-benzothiophene-3-carboxamide], the melting point fell in the range of 85 to 90 °C. In data set [1], this molecule yielded a CC50 at 48 h of 240 ± 16 µg/mL (≈ 627 µM).
In the case of `CC(=O)N(Cc1ccccc1)c1sc2cc(O)ccc2c1C(N)=O` [Example 81, 2-[acetyl(benzyl)amino]-6-hydroxy-1-benzothiophene-3-carboxamide], the melting point lay in the range of 110 to 115 °C. This molecule also gave a CC50 at 48 h in data set [1] of 251 ± 19 µg/mL (≈ 737 µM).
The molecule `CC(=O)N(Cc1ccccc1)c1sc2c(Cl)c(O)ccc2c1C(=O)N1CCCCC1` [Example 82, N-benzyl-N-[7-chloro-6-hydroxy-3-(piperidin-1-ylcarbonyl)-1-benzothien-2-yl]acetamide] returned a melting point of 95 to 100 °C. This molecule registered a CC50 at 48 h in data set [1] of 16.3 ± 0.8 µg/mL (≈ 36.8 µM).
In the case of `CNC(=O)c1c(N(Cc2ccccc2F)C(C)=O)sc2c(CN(C)C)c(O)ccc12` [Example 84, 2-[acetyl(2-fluorobenzyl)amino]-7-[(dimethylamino)methyl]-6-hydroxy-N-methyl-1-benzothiophene-3-carboxamide], the melting point fell in the range of 122 to 126 °C. Further, the CC50 at 48 h in data set [1] is greater than 300 µg/mL.
